Laboratory results reported in US20090054329A1, “COMPOSITION WITH DOCOSAPENTAENOIC ACID” (N.V. Nutricia, priority 2005, published 2009).

How the values were obtained:
[1] = system: MUC-2 expression; settings: MC T84 and CC T84; compared to propionate and butyrate
Description: See also the examples in applicants' co-pending European application no. 04748674.1).

[2] = system: intestinal epithelial cell lines T84; test: Transepithelial resistance (TER) of T84 monolayers; type: cell-based, human; settings: for Resistance (TER) Disrupted by IL-4 / Resistance (TER) Basal: T84 monolayers, fatty acid 100 μM, 72 hr incubation; for Resistance (TER) Disrupted by IL-4: IL-4 mediated barrier disruption; for Effect on epithelial resistance (in words): both under basal and barrier disruptive conditions, 100 μM, 72 hr; for Effect on barrier integrity and epithelial paracellular permeability (in words): summary statement
Protocol: Monolayers (MC) of intestinal epithelial cell lines T84 (American Type Culture Collection (ATTC), Manassas, USA) were cultured on transwell filters (Corning, Costar BV, The Netherlands) allowing both mucosal and serosal sampling and stimulation of human intestinal epithelial cells. […] Louis, USA). The latter procedure was chosen to mimic the in vivo administration route of the dietary compounds. […] Experiments were performed to evaluate basal barrier integrity and cytokine (IL-4) induced barrier disruption. The epithelial barrier function was determined by measuring the transepithelial resistance (TER, Ω.cm^2) by epithelial volt-ohm meter (EVOM; World Precision Instruments, Germany) and permeability for 4 kD FITC dextran (paracellular permeability marker, Sigma, USA). Epithelial permeability for 4 kDa FITC-dextran was determined as follows. Prior to dextran fluxes the medium was refreshed with culture medium without phenol red for one hour followed by addition of 5 μl (stock 100 mg/ml) 4 kDa FITC-dextran to the luminal compartment. After 60 min of incubation 100 μl sample was collected from the serosal compartment and the fluorescent signal measured at excitation wavelength 485 nm and emission 520 nm (FLUOstar Galaxy®, BMG Labtechnologies, USA). FITC-dextran fluxes were calculated as pmol FITC-dextran/cm^2/h. Statistical analyses were performed using the ANOVA (SPSS version 10).

[3] = system: intestinal epithelial cell lines T84; test: Permeability for 4 kD FITC dextran (flux) across T84 monolayers; type: cell-based, human; settings: for Permeability (Flux) Increased by IL-4: T84 monolayers, fatty acid 100 μM, 72 hr incubation, IL-4, 4 kDa FITC-dextran; for Effect on increase of permeability caused by cytokines (in words): incubations with cytokines (IL-4), 100 μM, 72 hr
Protocol: Monolayers (MC) of intestinal epithelial cell lines T84 (American Type Culture Collection (ATTC), Manassas, USA) were cultured on transwell filters (Corning, Costar BV, The Netherlands) allowing both mucosal and serosal sampling and stimulation of human intestinal epithelial cells. Two weeks post confluence the monolayers were incubated in the luminal compartment with polyunsaturated fatty acids DPA (7,10,13,16,19-docosapentaenoic acid, 22:5 n3), AA (arachidonic acid; 5,8,11,14-eicosatetraenoic acid), DHA (cis-4,7,10,13,16,19 docosahexaenoic acid), EPA (eicosapentaenoic acid) or control palmitic (C 16:0) acid (Palm) (Sigma, St. Louis, USA). The latter procedure was chosen to mimic the in vivo administration route of the dietary compounds. Cells were incubated with DPA, AA, DHA, EPA, or palmitic acid for 0, 24, 48 and 72 h at 100 μM.
Experiments were performed to evaluate basal barrier integrity and cytokine (IL-4) induced barrier disruption. The epithelial barrier function was determined by measuring the transepithelial resistance (TER, Ω.cm^2) by epithelial volt-ohm meter (EVOM; World Precision Instruments, Germany) and permeability for 4 kD FITC dextran (paracellular permeability marker, Sigma, USA). Epithelial permeability for 4 kDa FITC-dextran was determined as follows. Prior to dextran fluxes the medium was refreshed with culture medium without phenol red for one hour followed by addition of 5 μl (stock 100 mg/ml) 4 kDa FITC-dextran to the luminal compartment. After 60 min of incubation 100 μl sample was collected from the serosal compartment and the fluorescent signal measured at excitation wavelength 485 nm and emission 520 nm (FLUOstar Galaxy®, BMG Labtechnologies, USA). FITC-dextran fluxes were calculated as pmol FITC-dextran/cm^2/h. Statistical analyses were performed using the ANOVA (SPSS version 10).

| Structure (SMILES) | Stimulation of MUC-2 expression (mucus production) [1] | Resistance (TER) Disrupted by IL-4 [2] | Resistance (TER) Basal [2] | Effect on epithelial resistance (in words) [2] | Permeability (Flux) Increased by IL-4 [3] | Effect on increase of permeability caused by cytokines (in words) [3] | Effect on barrier integrity and epithelial paracellular permeability (in words) [2] |
| --- | --- | --- | --- | --- | --- | --- | --- |
| CC(=O)O [acetate] | more potent in stimulating MUC-2 expression | – | – | – | – | – | – |
| CCCCCC=CCC=CCC=CCC=CCCCC(=O)O [AA, 5,8,11,14-eicosatetraenoic acid] | – | 337 ± 13 Ω.cm^2 | 634 ± 29 Ω.cm^2 | improve epithelial resistance | 273 ± 76 pmol FITC-dextran/cm^2/h | effectively reduced | – |
| CCCCCCCCCCCCCCCC(=O)O [Palmitic acid, palmitic acid] | – | 272 ± 11 Ω.cm^2 | 496 ± 50 Ω.cm^2 | not effective | 646 ± 106 pmol FITC-dextran/cm^2/h | not | – |
| CC/C=C\C/C=C\C/C=C\C/C=C\C/C=C\CCCC(=O)O [EPA, eicosapentaenoic acid] | – | 375 ± 9 Ω.cm^2 | 584 ± 7 Ω.cm^2 | – | 236 ± 145 pmol FITC-dextran/cm^2/h | – | – |
| CCC=CCC=CCC=CCC=CCC=CCCCCCC(=O)O [DPA, 7,10,13,16,19-docosapentaenoic acid] | – | 368 ± 4 Ω.cm^2 | 605 ± 27 Ω.cm^2 | improve epithelial resistance | 216 ± 123 pmol FITC-dextran/cm^2/h | effectively reduced | effectively improves barrier integrity and reduces epithelial paracellular permeability |
| CCC=CCC=CCC=CCC=CCC=CC/C=C\CCC(=O)O [DHA, cis-4,7,10,13,16,19 docosahexaenoic acid] | – | 328 ± 7 Ω.cm^2 | 584 ± 50 Ω.cm^2 | improve epithelial resistance | 304 ± 75 pmol FITC-dextran/cm^2/h | effectively reduced | – |
| CCCCC/C=C\C/C=C\CCCCCCCC(=O)O [linoleic acid] | – | – | – | – | – | – | ineffective |
